From patent US10329302B2, “Bicyclic-fused heteroaryl or aryl compounds” (Pfizer Inc., priority 2014, dated 2019)
Like-named read-outs stand apart in the source and are kept apart here.

Experiments:
[1] = target: human IRAK4 FL (Full Length) (Homo sapiens (Human), UniProt Q9NWZ3); assay: IRAK4 Enzymatic DELFIA Assay, Protocol A; type: biochemical
[2] = system: R848-induced TNFα production by human peripheral blood mononuclear cells (PBMCs); assay: R848 Induced TNFα in Human PBMC Assay; type: cell-based; details: Homo sapiens, PBMC, 3 h, read-out: R848-induced TNFa PBMC IC50 (nM)
[3] = human IRAK4 FL, 0.6 mM ATP (KM), read-out: IRAK4 DELFIA Protocol A IC50

Sequence of human IRAK4 FL (Full Length) (Q9NWZ3 whole entry): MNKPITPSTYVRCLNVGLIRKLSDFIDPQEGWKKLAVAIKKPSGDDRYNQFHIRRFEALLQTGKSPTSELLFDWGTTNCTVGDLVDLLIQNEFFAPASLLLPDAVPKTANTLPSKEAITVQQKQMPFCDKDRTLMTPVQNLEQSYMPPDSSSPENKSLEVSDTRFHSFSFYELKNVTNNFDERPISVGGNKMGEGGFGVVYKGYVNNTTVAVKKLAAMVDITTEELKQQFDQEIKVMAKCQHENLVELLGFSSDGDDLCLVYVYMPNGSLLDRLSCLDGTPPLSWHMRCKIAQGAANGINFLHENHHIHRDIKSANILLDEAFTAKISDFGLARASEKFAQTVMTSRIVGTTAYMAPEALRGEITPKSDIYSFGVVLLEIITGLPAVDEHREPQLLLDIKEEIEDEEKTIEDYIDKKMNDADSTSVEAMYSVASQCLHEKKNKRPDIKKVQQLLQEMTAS

SMILES	IC50 [1, 3]	IC50 [2]	IC50 [1]
COc1cc2c(OC[C@@H]3C[C@@H](OC)C(=O)N3)cccc2cc1C(N)=O [Example 232, 3-methoxy-5-{[(2S,4R)-4-methoxy-5-oxopyrrolidin-2-yl]methoxy}naphthalene-2-carboxamide]	20 nM	261 nM	
COc1cc2c(OC[C@@H]3C[C@@](F)(CF)C(=O)N3)nccc2cc1C(N)=O [Example 215, 1-{[(2S,4S)-4-fluoro-4-(fluoromethyl)-5-oxopyrrolidin-2-yl]methoxy}-7-methoxyisoquinoline-6-carboxamide]		35 nM	1.7 nM
COc1cc2c(OC[C@H]3NC(=O)CC34CC4)nccc2cc1C(N)=O [Example 330, 7-methoxy-1-{[(4S)-6-oxo-5-azaspiro[2.4]hept-4-yl]methoxy}isoquinoline-6-carboxamide]	14 nM	134 nM	
Cc1nc(-c2cnc(OC[C@@H]3CCC(=O)N3)c3cc(OC(C)C)c(C(N)=O)cc23)c[nH]1 [Example 373, 4-(2-methyl-1H-imidazol-4-yl)-1-{[(2S)-5-oxopyrrolidin-2-yl]methoxy}-7-(propan-2-yloxy)isoquinoline-6-carboxamide]	35 nM	6160 nM	
COc1cc2c(OC[C@H]3NC(=O)[C@@H](OC)[C@H]3C)nccc2cc1C(N)=O [Example 349, 7-methoxy-1-{[(2S,3S,4S)-4-methoxy-3-methyl-5-oxopyrrolidin-2-yl]methoxy}isoquinoline-6-carboxamide]	2960 nM	9460 nM	
COc1cc2c(OC[C@H]3NC(=O)O[C@H]3C)nccc2cc1C(N)=O [Example 236, 7-methoxy-1-{[(4R,5S)-5-methyl-2-oxo-1,3-oxazolidin-4-yl]methoxy}isoquinoline-6-carboxamide]	8.4 nM	125 nM	
CC[C@H]1[C@@H](COc2nccc3cc(C(N)=O)c(OC)cc23)NC(=O)[C@@H]1OC [Example 343, 1-{[(2S,3S,4R)-3-ethyl-4-methoxy-5-oxopyrrolidin-2-yl]methoxy}-7-methoxyisoquinoline-6-carboxamide]	41 nM	408 nM	
COC[C@H]1[C@H]2C(=O)N[C@H](COc3nccc4cc(C(N)=O)c(OC)cc34)[C@@H]12 [Example 314, 7-methoxy-1-{[(1S,2S,5S)-6-(methoxymethyl)-4-oxo-3-azabicyclo[3.1.0]hex-2-yl]methoxy}isoquinoline-6-carboxamide]	1980 nM	8360 nM	
CC(C)Oc1cc2c(OC[C@@H]3C[C@@H](CC(F)(F)F)C(=O)N3)nccc2cc1C(N)=O [Example 151, 1-{[(2S,4S)-5-oxo-4-(2,2,2-trifluoroethyl)pyrrolidin-2-yl]methoxy}-7-(propan-2-yloxy)isoquinoline-6-carboxamide]	1.2 nM	25 nM	
COc1cc2c(OCC3(C)COC(=O)N3)nccc2cc1C(N)=O (centres unmarked) [Example 266, 7-methoxy-1-[(4-methyl-2-oxo-1,3-oxazolidin-4-yl)methoxy]isoquinoline-6-carboxamide]	74 nM	394 nM	
COc1cc2c(OC[C@H]3NC(=O)[C@](F)(CO)[C@H]3C)nccc2cc1C(N)=O [Example 208, 1-{[(2S,3S,4R)-4-fluoro-4-(hydroxymethyl)-3-methyl-5-oxopyrrolidin-2-yl]methoxy}-7-methoxyisoquinoline-6-carboxamide]	1.1 nM	87 nM	
COC[C@@H]1[C@H](F)C(=O)N[C@@H]1COc1nccc2cc(C(N)=O)c(OC)cc12 [Example 348, 1-{[(2S,3R,4S)-4-fluoro-3-(methoxymethyl)-5-oxopyrrolidin-2-yl]methoxy}-7-methoxyisoquinoline-6-carboxamide]	0.7 nM	42 nM	
COc1cc2c(OC[C@@H]3CCC(=O)N3)ncnc2cc1C(N)=O [Example 209, 6-methoxy-4-{[(2S)-5-oxopyrrolidin-2-yl]methoxy}quinazoline-7-carboxamide]	251 nM	9310 nM	
